Calls of active or inactive are those of the source. No cut-off for these calls is given here.
What was measured:
[1] = Toxicity in spontaneous hypertensive Wistar rat assessed as changes in urinary creatinine at 0.1 mg/kg, po administered for 7 days; assay type: organism-based; conditions: in vivo, 168 h
Rattus norvegicus [2] = experiment: Diuretic activity in normotensive Wistar rat assessed as urinary calcium excretion at 0.1 mg/kg, po administered via gavage after 8 hrs in presence of hydrochlorothiazide (reference value: 5.93 to 6.87 mg/dl); assay type: functional
[3] = Toxicity in normotensive Wistar rat assessed as changes in plasma sodium level at 0.1 mg/kg, po administered for 7 days; assay type: organism-based; conditions: in vivo, 168 h
Rattus norvegicus [4] = experiment: Diuretic activity in normotensive Wistar rat assessed as urine conductivity at 0.01 mg/kg, ip after 8 hrs (reference value: 24.87 +/- 0.54 mS/cm); assay type: functional
Rattus norvegicus [5] = experiment: Diuretic activity in normotensive Wistar rat assessed as urinary potassium excretion at 0.1 mg/kg, po administered via gavage after 8 hrs in presence of amiloride (reference value: 22.39 to 24.21 mmol/L); assay type: ADME, organism-based; conditions: in vivo
Rattus norvegicus [6] = experiment: Diuretic activity in normotensive Wistar rat assessed as urine conductivity at 0.1 mg/kg, po administered via gavage after 8 hrs in presence of atropine (reference value: 19.54 +/- 0.98 mS/cm); assay type: functional
Rattus norvegicus [7] = experiment: Diuretic activity in normotensive Wistar rat assessed as urinary potassium excretion at 0.1 mg/kg, po administered via gavage after 8 hrs in presence of furosemide (reference value: 22.39 to 24.21 mmol/L); assay type: ADME, organism-based; conditions: in vivo
Rattus norvegicus [8] = experiment: Diuretic activity in normotensive Wistar rat assessed as urinary chloride excretion at 0.1 mg/kg, po administered via gavage after 8 hrs (reference value: 135.10 to 143.70 mmol/L); assay type: functional
Rattus norvegicus [9] = experiment: Diuretic activity in normotensive Wistar rat assessed as urinary sodium excretion at 0.1 mg/kg, po administered via gavage after 8 hrs in presence of L-NAME (reference value: 61.82 to 80.81 mmol/L); assay type: functional
Rattus norvegicus [10] = experiment: Diuretic activity in normotensive Wistar rat assessed as urinary sodium excretion at 0.1 mg/kg, po administered via gavage after 8 hrs in presence of atropine (reference value: 61.82 to 80.81 mmol/L); assay type: functional
Rattus norvegicus [11] = experiment: Diuretic activity in normotensive Wistar rat assessed as increase in urine volume excretion at 0.1 to 1 mg/kg, po administered via gavage after 1 hr; assay type: functional, organism-based
Rattus norvegicus [12] = experiment: Diuretic activity in normotensive Wistar rat assessed as urinary sodium excretion at 0.1 mg/kg, po administered via gavage after 8 hrs in presence of amiloride (reference value: 61.82 to 80.81 mmol/L); assay type: functional
Rattus norvegicus [13] = experiment: Diuretic activity in spontaneous hypertensive Wistar rat assessed as decrease in urinary calcium excretion at 0.1 mg/kg, po administered via gavage for 7 days; assay type: functional, organism-based
[14] = Toxicity in normotensive Wistar rat assessed as changes in plasma uric acid level at 0.1 mg/kg, po administered for 7 days; assay type: organism-based; conditions: in vivo, 168 h
Rattus norvegicus [15] = experiment: Diuretic activity in normotensive Wistar rat assessed as urinary potassium excretion at 0.1 mg/kg, po administered via gavage after 8 hrs in presence of L-NAME (reference value: 22.39 to 24.21 mmol/L); assay type: ADME, organism-based; conditions: in vivo
[16] = Toxicity in spontaneous hypertensive Wistar rat assessed as changes in plasma ALT level at 0.1 mg/kg, po administered for 7 days; assay type: organism-based; conditions: in vivo, 168 h
Rattus norvegicus [17] = experiment: Diuretic activity in normotensive Wistar rat assessed as urinary calcium excretion at 0.01 mg/kg, po administered via gavage after 8 hrs (reference value: 5.93 to 6.87 mg/dl); assay type: functional
Rattus norvegicus [18] = experiment: Diuretic activity in normotensive Wistar rat assessed as urine conductivity at 0.1 mg/kg, po administered via gavage after 8 hrs in presence of amiloride (reference value: 19.54 +/- 0.98 mS/cm); assay type: functional
Rattus norvegicus [19] = experiment: Diuretic activity in spontaneous hypertensive Wistar rat assessed as effect on urinary potassium excretion at 0.1 mg/kg, po administered via gavage for 7 days; assay type: ADME, organism-based; conditions: in vivo, 168 h
Rattus norvegicus [20] = experiment: Diuretic activity in normotensive Wistar rat assessed as urinary calcium excretion at 0.1 mg/kg, po administered via gavage after 8 hrs (reference value: 5.93 to 6.87 mg/dl); assay type: functional
Rattus norvegicus [21] = experiment: Diuretic activity in normotensive Wistar rat assessed as urine pH at 0.1 mg/kg, po administered via gavage after 8 hrs in presence of furosemide (reference value: 6.14 to 6.21); assay type: functional
Rattus norvegicus [22] = experiment: Diuretic activity in normotensive Wistar rat assessed as urinary sodium excretion at 0.1 mg/kg, po administered via gavage after 8 hrs in presence of furosemide (reference value: 61.82 to 80.81 mmol/L); assay type: functional
Rattus norvegicus [23] = experiment: Diuretic activity in normotensive Wistar rat assessed as urinary potassium excretion at 0.01 mg/kg, po administered via gavage after 8 hrs (reference value: 22.39 to 24.21 mmol/L); assay type: ADME, organism-based; conditions: in vivo
Rattus norvegicus [24] = experiment: Diuretic activity in normotensive Wistar rat assessed as urinary calcium excretion at 0.1 mg/kg, […] administered via gavage after 8 hrs (reference value: 5.28 +/- 0.09 mg/dl); assay type: functional
Rattus norvegicus [25] = experiment: Diuretic activity in normotensive Wistar rat assessed as urine pH at 0.1 mg/kg, po administered via gavage after 8 hrs in presence of amiloride (reference value: 6.14 to 6.21); assay type: functional
Rattus norvegicus [26] = experiment: Diuretic activity in normotensive Wistar rat assessed as urinary sodium excretion at 0.1 mg/kg, po administered via gavage after 8 hrs (reference value: 61.82 to 80.81 mmol/L); assay type: functional
[27] = Anti-urolithic activity in synthetic urine assessed as decrease in absorbance at 0.1 mg/mL after 30 mins relative to control; assay type: functional; design: scale not given: the % may be the effect or the level left
Rattus norvegicus [28] = experiment: Diuretic activity in normotensive Wistar rat assessed as effect on urinary potassium excretion at 0.1 mg/kg, po administered via gavage for 7 days; assay type: ADME, organism-based; conditions: in vivo, 168 h
[29] = Anti-urolithic activity in synthetic urine assessed as decrease in absorption at 0.1 mg/mL relative to control; assay type: functional; design: scale not given: the % may be the effect or the level left
Rattus norvegicus [30] = experiment: Diuretic activity in normotensive Wistar rat assessed as increase in urinary chloride excretion at 0.1 mg/kg, po administered via gavage for 7 days; assay type: functional, organism-based
[31] = Toxicity in spontaneous hypertensive Wistar rat assessed as changes in urea level in urine at 0.1 mg/kg, po administered for 7 days; assay type: organism-based; conditions: in vivo, 168 h
Rattus norvegicus [32] = experiment: Diuretic activity in normotensive Wistar rat assessed as urinary potassium excretion at 0.1 mg/kg, po administered via gavage after 8 hrs (reference value: 22.39 to 24.21 mmol/L); assay type: ADME, organism-based; conditions: in vivo
Rattus norvegicus [33] = experiment: Diuretic activity in normotensive Wistar rat assessed as urinary calcium excretion at 0.1 mg/kg, po administered via gavage after 8 hrs in presence of amiloride (reference value: 5.93 to 6.87 mg/dl); assay type: functional
Rattus norvegicus [34] = experiment: Diuretic activity in normotensive Wistar rat assessed as urine pH at 0.01 mg/kg, po administered via gavage after 8 hrs (reference value: 6.14 to 6.21); assay type: functional
Rattus norvegicus [35] = experiment: Diuretic activity in normotensive Wistar rat assessed as urinary chloride excretion at 0.01 mg/kg, po administered via gavage after 8 hrs (reference value: 135.10 to 143.70 mmol/L); assay type: functional
Rattus norvegicus [36] = experiment: Diuretic activity in normotensive Wistar rat assessed as urine conductivity at 1 mg/kg, po administered via gavage after 8 hrs (reference value: 19.54 +/- 0.98 mS/cm); assay type: functional

C[C@@H]1O[C@@H](Oc2c(-c3ccc(O)cc3)oc3cc(O)cc(O)c3c2=O)[C@H](O)[C@H](O)[C@H]1O [AFZELIN]
Activity [1]: Non-Toxic | Activity (Rattus norvegicus [2]): 4.54 mg/dL | Activity [3]: Non-Toxic | Activity (Rattus norvegicus [4]): 26.4 mS/cm | Activity (Rattus norvegicus [5]): 1.95 mmol/L | Activity (Rattus norvegicus [6]): 19.09 mS/cm | Activity (Rattus norvegicus [7]): 20.41 mmol/L | Activity (Rattus norvegicus [8]): 186.6 to 231.3 mmol/L | Activity (Rattus norvegicus [9]): 75.14 mmol/L | Activity (Rattus norvegicus [10]): 57.23 mmol/L | Activity (Rattus norvegicus [11]): Active | Activity (Rattus norvegicus [12]): 79.24 mmol/L | Activity (Rattus norvegicus [13]): Active | Activity [14]: Non-Toxic | Activity (Rattus norvegicus [15]): 14.84 mmol/L | Activity [16]: Non-Toxic | Activity (Rattus norvegicus [17]): 5.23 mg/dL | Activity (Rattus norvegicus [18]): 15.25 mS/cm | Activity (Rattus norvegicus [19]): Non-Toxic | Activity (Rattus norvegicus [20]): 5.22 to 6.33 mg/dL | pH (Rattus norvegicus [21]): 6.25 | Activity (Rattus norvegicus [22]): 75.54 mmol/L | Activity (Rattus norvegicus [23]): 17.98 mmol/L | Activity (Rattus norvegicus [24]): 5.51 mg/dL | pH (Rattus norvegicus [25]): 6.26 | Activity (Rattus norvegicus [26]): 53.09 to 56.99 mmol/L | Activity [27]: 21.54% | Activity (Rattus norvegicus [28]): Non-Toxic | Activity [29]: 27.81% | Activity (Rattus norvegicus [30]): Active | Activity [31]: Non-Toxic | Activity (Rattus norvegicus [32]): 24.2 to 24.7 mmol/L | Activity (Rattus norvegicus [33]): 4.74 mg/dL | pH (Rattus norvegicus [34]): 5.73 | Activity (Rattus norvegicus [35]): 113.3 mmol/L | Activity (Rattus norvegicus [36]): 17.48 mS/cm

Source: ChEMBL document CHEMBL4619763 (J Nat Prod, 2020)
